Two molecules from paper PMC7767381, “Exploring the Anti-Cancer Mechanism of Novel 3,4′-Substituted Diaryl Guanidinium Derivatives” (Pharmaceuticals, 2020) can be followed below.

The subject of one series is HL-60 cells. The series is described as follows: alamarBlue cell viability assay, HL-60. The following applies: Homo sapiens, HL-60, 72 h, alamarBlue, 72 h; read-out: HL-60 IC50 ± SEM. Format: cell-based. From the text:
Cell viability and proliferation assays were used to evaluate the in vitro cytotoxicity of all synthesised compounds in a variety of different cancer cell lines using the alamarBlue® viability assay and the results are presented in Table 1 and Table 2. The sensitivity of cancer cells to drugs can often be compromised by PIK3CA, Ras and BRAF mutations. To determine whether such mutations are critical to the efficacy of our new compounds we tested them in a range of cancerous cell lines expressing different mutations. Firstly, we used the HL-60 (human promyelocytic leukaemia, NRas mutated) cell line for general cytotoxicity screening of all compounds. […] Lastly, toxicity against MCF-10A, which is a non-tumorigenic epithelial cell line, was also assessed for one of the most promising compounds (4). The graphs representing the viability results with the HL-60, MCF-7, HeLa, HCT-116, and HKH-2 cancer cell lines for compound 1 and derivatives 2, 3, and 4 are shown in Figures S7–S10 (ESI).
(§1) Cells were counted and seeded in 96-well plates at a density of 2 × 10^5 cells/mL for HL-60, 2.5 × 10^4 cells/mL for MCF-7, MCF10A and HeLa, 1 × 10^5 cells/mL for HCT116 and HKH-2, all of them in their respective media. The 96-well plates were then treated with a 1:100 dilution of stock concentrations of drugs or EtOH (1% v/v)/DMSO (0.1% v/v) as vehicle control in triplicate. Three blank wells containing 200 µL RPMI with no cells were also set-up as blanks. After a 72 h incubation, 20 µL of alamarBlue was added to each well. The plates were incubated in darkness at 37 °C for 4–5 h using a Molecular Devices microplate reader, the fluorescence (F) was then read at an excitation wavelength of 544 nm and an emission wavelength of 590 nm. Cell viability was then determined by subtracting the mean blank fluorescence (Fb) from the treated sample fluorescence (Fs) and expressing this as a percentage of the fluorescence of the blanked vehicle control (Fc). […] The results were then plotted as a nonlinear regression, sigmoidal dose-response curves on Prism, from which the IC50 value for each drug was determined. […]
Pharmacy, TCD. It was maintained in Roswell Park Memorial Institute (RPMI) 1640 medium with stable glutamate (GlutaMax I) supplemented with 10% (v/v) fetal bovine serum (FBS), 1% (v/v) penicillin/ streptomycin (pen-strep) and 2 mM L-glutamine. […]
4.4. AlamarBlue ® Cell Viability Assay
Cells were counted and seeded in 96 well plates at a density of 2 × 10^5 cells/mL for HL-60, 2.5× 10^4 cells/mL for MCF-7, MCF10A and HeLa, 1 × 10^5 cells/mL for HCT116 and HKH-2, all of them in their respective media. The 96 well plates were then treated with a 1:100 dilution of stock concentrations of drugs or EtOH (1% v/v)/DMSO (0.1% v/v) as vehicle control in triplicate.
Three blank wells containing 200 µL media with no cells were also set-up as blanks. After a 72 h incubation, 20 µL of AlamarBlue was added to each well. The plates were incubated in darkness at 37 °C for 4-5 h. Using a Molecular Devices microplate reader, the fluorescence (F) was then read at an excitation wavelength of 544 nm and an emission wavelength of 590 nm.
Cell viability was then determined by subtracting the mean blank fluorescence (Fb) from the treated sample fluorescence (Fs) and expressing this as a percentage of the fluorescence of the blanked vehicle control (Fc). […] The results were […]
then plotted as a nonlinear regression, sigmoidal dose-response curves on Prism, from which the IC50 value for each drug was determined.
Fs − Fb x 100 = % Cell Viability
60 cell line in a dose-dependent manner.
(1 picture or pasted object on this page, not shown here)
On the technique in general: Resazurin is reduced to fluorescent resorufin, in cell work by metabolically active cells.

Another series relates to MCF10A cells. The series can be described thus: alamarBlue toxicity in non-tumorigenic MCF10A cells. Type of series: cell-based, human.
Excerpt: Considering the promising cytotoxicity results obtained with the cancer cell lines, we also evaluated the potential toxicity of the most efficient derivative (compound 4) in the non-cancerous cell line MCF10A (human mammary epithelial cell line).
as §1, with “After a 72 h incubation, 20 µL of alamarBlue was added to each well.” left out
Figure S11. Scatter correlation found between the calculated logP and the HL -60 cytotoxic […]

Structures are written as SMILES.

For `Cl.Cl.N=C(N)Nc1ccc(Oc2cccc(NC(=N)Nc3ccc(Cl)c(C(F)(F)F)c3)c2)cn1` [Compound 2, 1-(4-Chloro-3-(trifluoromethyl)phenyl)-3-(3-((6-guanidinopyridin-3-yl)oxy)phenyl) guanidine dihydrochloride], the IC50 with HL-60 cells amounted to 2.36 ± 0.14 µM.

As for `Cl.N=C(N)Nc1ccc(Oc2cccc(Nc3ccc(Cl)c(C(F)(F)F)c3)c2)cn1` [Compound 4, 1-(5-(3-((4-Chloro-3-(trifluoromethyl)phenyl)amino)phenoxy)pyridin-2-yl)guanidine hydrochloride], the “toxicity towards MCF10A” value in the series with MCF10A cells (100 μM) was “shows toxicity”. The “effect on MCF10A cell viability” value in the series on MCF10A cells (10 and 1 μM) is listed as “does not appear to affect in any way cell viability”. In the series with HL-60 cells, the IC50 was 3.48 ± 0.28 µM.

In general, IC50 refers to the midpoint of a concentration-inhibition curve.
